According to ChEMBL document CHEMBL2040782 (Eur J Med Chem, 2012):

What was measured:
CYP3A5 = CYP3A5 (Homo sapiens, UniProt P20815); test: Inhibition of CYP3A5 at 10 uM; assay type: ADME
CYP2D6 = CYP2D6 (Homo sapiens, UniProt P10635); test: Inhibition of CYP2D6 at 10 uM; assay type: ADME
CYP3A4 = CYP3A4 (Homo sapiens, UniProt P08684); test: Inhibition of CYP3A4 at 10 uM; assay type: ADME
Rattus norvegicus = test: Wake promoting activity in EEG/EMG Sprague-Dawley rat model assessed as slow wave sleep and rapid eye movement sleep time at 100 mg/kg, ip measured up to 3 hrs (reference value: 65 +/- 9 mins); assay type: functional; conditions: route intraperitoneal
[1] = target: Transporter (Rattus norvegicus) (UniProt Q63380); conditions: 10 uM
Description: Inhibition of rat NET at 10 uM

[2] = target: Sodium-dependent serotonin transporter (Rattus norvegicus) (UniProt P31652); test: Inhibition of rat SERT at 10 uM
Cytochrome P450 2D6 = Cytochrome P450 2D6 (Homo sapiens, UniProt P10635); test: Inhibition of CYP2D6; assay type: ADME
CYP1A2 = target: T1, CYP1A2 (Homo sapiens, UniProt P05177); test: (§1) Inhibition of CYP1A2 ( at 100 uM); assay type: ADME
T1 sequence (P05177 whole entry): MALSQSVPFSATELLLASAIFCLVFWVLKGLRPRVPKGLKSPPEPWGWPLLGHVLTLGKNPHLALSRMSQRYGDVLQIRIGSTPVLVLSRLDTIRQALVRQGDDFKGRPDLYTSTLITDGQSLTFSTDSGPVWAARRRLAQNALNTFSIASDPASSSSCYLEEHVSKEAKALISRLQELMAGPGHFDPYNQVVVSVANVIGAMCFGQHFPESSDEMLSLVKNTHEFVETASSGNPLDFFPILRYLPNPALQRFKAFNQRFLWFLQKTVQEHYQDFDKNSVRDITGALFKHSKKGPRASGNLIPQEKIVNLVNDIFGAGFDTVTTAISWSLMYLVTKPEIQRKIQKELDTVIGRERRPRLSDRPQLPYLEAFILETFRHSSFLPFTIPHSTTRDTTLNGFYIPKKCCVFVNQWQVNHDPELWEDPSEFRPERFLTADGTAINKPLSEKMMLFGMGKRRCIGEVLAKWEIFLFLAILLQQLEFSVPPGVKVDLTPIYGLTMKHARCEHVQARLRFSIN

[3] = target: T2, Sodium-dependent dopamine transporter (Rattus norvegicus, UniProt P23977); test: Inhibition of rat DAT
Cytochrome P450 2C19 = Cytochrome P450 2C19 (Homo sapiens, UniProt P33261); test: Inhibition of CYP2C19; assay type: ADME
Cytochrome P450 3A5 = Cytochrome P450 3A5 (Homo sapiens, UniProt P20815); test: Inhibition of CYP3A5; assay type: ADME
CYP1A1 = target: T3, CYP1A1 (Homo sapiens, UniProt P04798); test: (§2) Inhibition of CYP1A1 ( at 100 uM); assay type: ADME
T3 sequence (P04798 whole entry): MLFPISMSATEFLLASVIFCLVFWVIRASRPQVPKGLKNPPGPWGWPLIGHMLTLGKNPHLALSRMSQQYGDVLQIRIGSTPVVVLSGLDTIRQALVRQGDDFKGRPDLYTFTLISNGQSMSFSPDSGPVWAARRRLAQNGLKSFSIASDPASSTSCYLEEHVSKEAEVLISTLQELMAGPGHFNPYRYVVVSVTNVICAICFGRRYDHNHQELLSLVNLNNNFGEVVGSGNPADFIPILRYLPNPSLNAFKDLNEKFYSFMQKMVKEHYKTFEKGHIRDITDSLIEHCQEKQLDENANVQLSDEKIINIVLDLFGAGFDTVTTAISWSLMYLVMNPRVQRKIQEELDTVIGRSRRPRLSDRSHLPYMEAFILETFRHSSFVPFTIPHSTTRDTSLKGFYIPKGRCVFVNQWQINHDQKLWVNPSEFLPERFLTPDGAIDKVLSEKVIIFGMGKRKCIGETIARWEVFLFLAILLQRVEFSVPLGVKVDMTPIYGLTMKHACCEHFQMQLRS

Transporter = Transporter (Rattus norvegicus, UniProt Q63380); test: Inhibition of rat NET-mediated norepinephrine reuptake
Cytochrome P450 2C9 = Cytochrome P450 2C9 (Homo sapiens, UniProt P11712); test: Inhibition of CYP2C9; assay type: ADME
Cytochrome P450 3A4 = Cytochrome P450 3A4 (Homo sapiens, UniProt P08684); test: Inhibition of CYP3A4; assay type: ADME
[4] = target: Sodium-dependent serotonin transporter (Rattus norvegicus, UniProt P31652); test: Inhibition of rat SERT-mediated serotonin reuptake
[5] = target: T2, Sodium-dependent dopamine transporter; test: Inhibition of rat DAT-mediated dopamine reuptake
Cytochrome P450 1A2 = target: T4, Cytochrome P450 1A2 (Homo sapiens, UniProt P05177); test: as §1; assay type: ADME; conditions: 100 µM
T4 sequence (P05177 whole entry): T1 sequence (P05177 whole entry)

Cytochrome P450 1A1 = target: T5, Cytochrome P450 1A1 (Homo sapiens, UniProt P04798); test: as §2; assay type: ADME; conditions: 100 µM
T5 sequence (P04798 whole entry): T3 sequence (P04798 whole entry)

T2 sequence (P23977 whole entry): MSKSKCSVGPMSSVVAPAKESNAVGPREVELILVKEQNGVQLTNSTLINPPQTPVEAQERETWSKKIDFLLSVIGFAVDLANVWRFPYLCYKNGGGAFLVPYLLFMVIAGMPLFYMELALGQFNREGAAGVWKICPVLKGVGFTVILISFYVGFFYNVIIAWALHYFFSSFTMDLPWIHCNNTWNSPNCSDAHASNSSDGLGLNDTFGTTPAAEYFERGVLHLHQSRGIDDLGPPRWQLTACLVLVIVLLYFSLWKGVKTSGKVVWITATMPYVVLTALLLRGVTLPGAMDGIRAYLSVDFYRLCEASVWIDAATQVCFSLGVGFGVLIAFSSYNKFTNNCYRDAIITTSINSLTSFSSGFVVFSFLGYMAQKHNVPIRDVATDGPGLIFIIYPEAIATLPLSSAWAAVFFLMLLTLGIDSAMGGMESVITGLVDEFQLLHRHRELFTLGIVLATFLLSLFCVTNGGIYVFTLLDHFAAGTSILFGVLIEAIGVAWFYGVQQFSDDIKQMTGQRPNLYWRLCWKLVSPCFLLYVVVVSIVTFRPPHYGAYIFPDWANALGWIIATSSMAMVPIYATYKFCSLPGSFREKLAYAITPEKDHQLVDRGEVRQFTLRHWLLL
Cytochrome P450 3A5, sequence (P20815 whole entry): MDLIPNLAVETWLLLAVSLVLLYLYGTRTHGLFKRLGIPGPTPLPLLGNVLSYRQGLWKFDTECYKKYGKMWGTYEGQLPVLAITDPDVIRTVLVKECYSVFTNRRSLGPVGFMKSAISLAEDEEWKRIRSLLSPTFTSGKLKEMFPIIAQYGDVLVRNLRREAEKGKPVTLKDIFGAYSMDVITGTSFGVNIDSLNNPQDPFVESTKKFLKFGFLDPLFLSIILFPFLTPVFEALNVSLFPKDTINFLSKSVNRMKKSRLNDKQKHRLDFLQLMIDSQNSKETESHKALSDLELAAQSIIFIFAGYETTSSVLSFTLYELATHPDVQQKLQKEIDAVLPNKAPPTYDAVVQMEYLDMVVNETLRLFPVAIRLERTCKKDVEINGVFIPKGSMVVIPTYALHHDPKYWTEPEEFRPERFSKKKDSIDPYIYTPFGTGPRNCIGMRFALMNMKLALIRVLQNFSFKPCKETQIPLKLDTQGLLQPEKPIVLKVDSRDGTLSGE
Cytochrome P450 3A4, sequence (P08684 whole entry): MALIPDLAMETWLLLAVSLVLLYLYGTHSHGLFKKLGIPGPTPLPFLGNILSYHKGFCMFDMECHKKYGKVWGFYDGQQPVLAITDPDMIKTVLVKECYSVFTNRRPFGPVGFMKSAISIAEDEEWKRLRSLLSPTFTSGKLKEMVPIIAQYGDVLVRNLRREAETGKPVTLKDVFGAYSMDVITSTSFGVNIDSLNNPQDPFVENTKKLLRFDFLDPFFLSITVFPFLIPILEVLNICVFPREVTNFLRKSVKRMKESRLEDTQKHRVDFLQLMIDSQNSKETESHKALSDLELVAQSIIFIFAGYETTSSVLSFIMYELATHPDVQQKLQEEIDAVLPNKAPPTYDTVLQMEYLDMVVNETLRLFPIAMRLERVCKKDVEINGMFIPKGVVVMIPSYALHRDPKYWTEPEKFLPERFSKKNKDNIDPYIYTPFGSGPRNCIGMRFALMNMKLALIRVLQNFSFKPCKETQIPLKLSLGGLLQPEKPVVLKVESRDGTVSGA
Sodium-dependent serotonin transporter, sequence (P31652 whole entry): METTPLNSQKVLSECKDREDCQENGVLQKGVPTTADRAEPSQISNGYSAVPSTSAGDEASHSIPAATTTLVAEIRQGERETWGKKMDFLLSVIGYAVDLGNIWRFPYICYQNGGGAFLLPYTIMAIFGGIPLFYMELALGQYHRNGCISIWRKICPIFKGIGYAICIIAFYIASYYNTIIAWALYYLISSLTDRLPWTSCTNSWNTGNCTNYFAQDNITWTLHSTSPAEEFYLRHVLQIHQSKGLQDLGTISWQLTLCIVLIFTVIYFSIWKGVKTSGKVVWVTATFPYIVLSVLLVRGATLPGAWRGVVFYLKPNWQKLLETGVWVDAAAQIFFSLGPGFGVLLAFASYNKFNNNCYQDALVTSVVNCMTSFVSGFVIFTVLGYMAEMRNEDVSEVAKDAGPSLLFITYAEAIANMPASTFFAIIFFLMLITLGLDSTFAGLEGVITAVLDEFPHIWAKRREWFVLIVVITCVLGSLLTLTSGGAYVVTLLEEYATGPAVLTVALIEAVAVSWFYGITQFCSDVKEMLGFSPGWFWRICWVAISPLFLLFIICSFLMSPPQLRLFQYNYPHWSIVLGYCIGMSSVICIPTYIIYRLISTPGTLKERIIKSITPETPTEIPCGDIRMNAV
Sodium-dependent serotonin transporter (Rattus norvegicus), sequence (P31652 whole entry): as above
Cytochrome P450 2C19, sequence (P33261 whole entry): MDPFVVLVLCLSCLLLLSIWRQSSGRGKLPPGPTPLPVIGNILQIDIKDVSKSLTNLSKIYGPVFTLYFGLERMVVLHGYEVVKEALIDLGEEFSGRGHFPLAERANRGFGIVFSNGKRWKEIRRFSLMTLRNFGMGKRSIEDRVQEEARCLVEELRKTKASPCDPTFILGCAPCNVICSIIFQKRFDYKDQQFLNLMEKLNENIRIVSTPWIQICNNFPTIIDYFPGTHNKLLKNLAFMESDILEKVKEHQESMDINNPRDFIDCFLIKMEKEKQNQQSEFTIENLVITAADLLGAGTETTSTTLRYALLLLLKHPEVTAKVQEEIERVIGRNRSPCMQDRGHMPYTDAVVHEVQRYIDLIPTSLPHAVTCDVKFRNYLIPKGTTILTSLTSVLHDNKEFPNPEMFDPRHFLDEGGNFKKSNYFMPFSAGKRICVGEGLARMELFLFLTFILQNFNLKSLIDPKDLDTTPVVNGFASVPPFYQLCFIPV
Cytochrome P450 2D6, sequence (P10635 whole entry): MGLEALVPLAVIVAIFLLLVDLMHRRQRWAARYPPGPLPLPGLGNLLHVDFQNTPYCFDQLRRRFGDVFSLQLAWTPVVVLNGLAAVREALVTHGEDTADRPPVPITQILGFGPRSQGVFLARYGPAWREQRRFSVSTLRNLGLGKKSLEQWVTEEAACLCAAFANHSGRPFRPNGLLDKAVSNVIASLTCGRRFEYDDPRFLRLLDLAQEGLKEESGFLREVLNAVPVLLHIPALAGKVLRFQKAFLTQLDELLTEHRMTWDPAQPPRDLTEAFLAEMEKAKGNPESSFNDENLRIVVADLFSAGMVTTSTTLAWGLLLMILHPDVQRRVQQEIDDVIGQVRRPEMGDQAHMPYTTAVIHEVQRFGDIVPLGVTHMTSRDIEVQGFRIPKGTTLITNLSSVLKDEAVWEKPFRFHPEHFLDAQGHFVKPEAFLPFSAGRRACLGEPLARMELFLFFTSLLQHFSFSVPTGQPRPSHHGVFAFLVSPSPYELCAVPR
Transporter, sequence (Q63380 whole entry): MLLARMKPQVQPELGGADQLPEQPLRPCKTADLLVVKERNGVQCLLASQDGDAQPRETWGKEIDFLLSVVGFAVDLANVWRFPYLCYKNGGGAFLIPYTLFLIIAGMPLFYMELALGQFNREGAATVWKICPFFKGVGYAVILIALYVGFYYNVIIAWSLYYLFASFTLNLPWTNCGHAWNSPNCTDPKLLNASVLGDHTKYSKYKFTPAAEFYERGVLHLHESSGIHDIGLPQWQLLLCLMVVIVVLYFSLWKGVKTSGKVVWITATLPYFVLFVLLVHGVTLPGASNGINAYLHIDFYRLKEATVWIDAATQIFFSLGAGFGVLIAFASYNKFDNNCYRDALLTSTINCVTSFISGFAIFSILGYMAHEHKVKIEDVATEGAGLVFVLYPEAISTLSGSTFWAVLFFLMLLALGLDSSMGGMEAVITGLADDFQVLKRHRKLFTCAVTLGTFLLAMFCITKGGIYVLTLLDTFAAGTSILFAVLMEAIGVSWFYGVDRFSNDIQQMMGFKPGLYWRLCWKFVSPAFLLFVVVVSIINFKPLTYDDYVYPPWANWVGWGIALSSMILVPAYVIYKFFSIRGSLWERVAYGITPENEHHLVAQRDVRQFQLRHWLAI
Transporter (Rattus norvegicus), sequence (Q63380 as listed by the source): as the sequence (Q63380 whole entry) above
CYP3A5, sequence (P20815 whole entry): as the sequence (P20815 whole entry) above
CYP3A4, sequence (P08684 whole entry): as the sequence (P08684 whole entry) above
CYP2D6, sequence (P10635 whole entry): as the sequence (P10635 whole entry) above

## NC(=O)C[S+]([O-])C(c1ccccc1)c1ccccc1 (stereo unspecified) [MODAFINIL]
CYP3A5
  inhibition at 10 µM: < 10%
CYP2D6
  inhibition at 10 µM: < 10%
CYP3A4
  inhibition at 10 µM: < 10%
Rattus norvegicus
  Time: 117 min

## NC(=O)C[S+]([O-])Cc1ccccc1Oc1ccc(Cl)c(Cl)c1 (single isomer, unassigned; (-)) [listing 1 of 2 here]
[1]
  inhibition: 48%
[2]
  inhibition: 30%

## NC(=O)C[S+]([O-])Cc1ccccc1Oc1cccc(Cl)c1Cl (racemic)
Rattus norvegicus
  Time: 120 min

## NC(=O)C[S+]([O-])Cc1ccccc1Oc1ccc(Cl)c(Cl)c1 (single isomer, unassigned; (-)) [listing 2 of 2 here]
Cytochrome P450 2D6
  IC50: 106 µM
CYP1A2
  inhibition at 100 µM: 10%
[3]
  IC50: 200 nM
Cytochrome P450 2C19
  IC50: 30 µM
Cytochrome P450 3A5
  IC50: 40 µM
CYP1A1
  inhibition at 100 µM: 10%
Transporter
  IC50: 1300 nM
Cytochrome P450 2C9
  IC50: 216 µM
Cytochrome P450 3A4
  IC50: 40 µM
[4]
  IC50: 31 µM
[5]
  IC50: 1100 nM
Rattus norvegicus; 100 mg/kg
  Time: 168 min

## NC(=O)C[S+]([O-])Cc1ccccc1Oc1ccc(F)c(Cl)c1 (racemic)
Rattus norvegicus
  Time: 160 min

## NC(=O)C[S+]([O-])Cc1ccccc1Oc1ccc2ccccc2c1 (racemic)
Rattus norvegicus
  Time: 131 min

## NC(=O)C[S+]([O-])Cc1ccc(Oc2ccc(Cl)c(Cl)c2)cc1 (stereo unspecified)
Rattus norvegicus
  Time: 88 min

## NC(=O)C[S+]([O-])Cc1ccccc1Oc1ccc(Cl)cc1Cl (racemic)
Rattus norvegicus
  Time: 74 min

## NC(=O)C[S+]([O-])Cc1ccccc1Oc1ccc(Cl)c(Cl)c1 (racemic)
Rattus norvegicus; 100 mg/kg
  Time: 180 min

## NC(=O)C[S+]([O-])Cc1ccccc1Oc1cc(Cl)cc(Cl)c1 (racemic)
Rattus norvegicus
  Time: 117 min

## NC(=O)C[S+]([O-])Cc1ccccc1Oc1ccc(Cl)cc1 (racemic)
Rattus norvegicus
  Time: 165 min

## NC(=O)C[S+]([O-])Cc1ccccc1Oc1ccc(F)cc1 (racemic)
Rattus norvegicus
  Time: 123 min

## NC(=O)C[S+]([O-])Cc1ccccc1Oc1ccc(Cl)c(Cl)c1 (single isomer, unassigned; (+)) [listing 1 of 2 here]
[1]
  inhibition: 39%
[2]
  inhibition: 24%

## NC(=O)C[S+]([O-])Cc1ccccc1Oc1ccc(Cl)c(F)c1 (racemic)
Rattus norvegicus
  Time: 176 min

## NC(=O)C[S+]([O-])Cc1ccccc1Oc1ccc(Cl)c(Cl)c1 (single isomer, unassigned; (+)) [listing 2 of 2 here]
Cytochrome P450 2D6
  IC50: 89 µM
Cytochrome P450 1A2
  inhibition (INH): 18%
[3]
  IC50: 900 nM
Cytochrome P450 2C19
  IC50: 20 µM
Cytochrome P450 3A5
  IC50: 32 µM
Cytochrome P450 1A1
  inhibition (INH): 18%
Transporter
  IC50: 3100 nM
Cytochrome P450 3A4
  IC50: 32 µM
[4]
  IC50: 33 µM
[5]
  IC50: 1100 nM
Rattus norvegicus; 100 mg/kg
  Time: 167 min
